# Assay results taken from patent US8754226B2, “Piperidinyl-substituted lactams as GPR119 modulators” (Array BioPharma Inc., priority 2010, dated 2014).
# Tested on: modified version of the GPR119 receptor (94% identity to human receptor)
# Test: cAMP production assay (LANCE cAMP kit, TR-FRET) in HEK-293 cells
# Assay type: cell-based
# Conditions: for cAMP production in HEK-293 cells: HEK-293 cells stably expressing modified GPR119, test compounds 0.2 nM to 10 μM, one-hour incubation at ambient temperature; for Fold over baseline: increase in cAMP relative to basal levels, agonist activity if 1.5-fold or greater
# Protocol: The assay utilized HEK-293 cells that stably express a modified version of the GPR119 receptor (94% identity to human receptor), under the control of a CMV promoter containing a tet-on element for tetracycline-inducible expression. GPR119 agonist-induced cyclic AMP (cAMP) production was measured in this cell line using the LANCE cAMP kit (Perkin Elmer, Waltham, Mass.). To generate a working stock of cells for the assay, cells were treated overnight with 1 μg/mL doxycycline at 37° C. in the presence of 5% CO2 to induce receptor expression. Cells were then harvested by enzymatic dissociation with 0.05% trypsin, resuspended in freezing medium (DMEM growth medium with 10% each of fetal bovine serum and DMSO), aliquoted and frozen at −80° C. On the day of the assay, frozen cells were thawed, washed 1× in PBS and resuspended in Hank's buffered salt solution (HBSS) containing 5 mM HEPES, 0.1% BSA and Alexa Fluor 647-conjugated anti-cAMP antibody (diluted 1:100). The cell suspension was then transferred to a Proxiplate Plus white 384-well assay plate (Perkin-Elmer) at 2000 cells/well. Test compounds at final concentrations ranging from 0.2 nM to 10 μM were added to the assay plate, followed by a one-hour incubation at ambient temperature (volume=10 μL/well). DMSO concentration was held constant at 0.5%. After incubation with test compounds, 10 μL of a detergent buffer containing a biotinylated cAMP/Europium-conjugated streptavidin complex (Europium-labeled cAMP tracer) were added to each well on the assay plate, followed by a 2-hour incubation at ambient temperature. During this incubation cAMP released from lysed cells competes with the Europium-labeled cAMP tracer for binding to the Alexa Fluor 647-conjugated antibody. […] Cellular cAMP levels were then determined by interpolation of raw signal data using a cAMP standard curve. Compounds were determined to have agonist activity if they stimulated a 1.5-fold or greater increase in cAMP relative to basal levels.
SMILES,cAMP production in HEK-293 cells [nmol],Fold over baseline
"CS(=O)(=O)c1ccc(N[C@H]2CCN(C3CCN(c4ccc(C(F)(F)F)cn4)CC3)C2=O)c(F)c1 [Example 103, (S)-3-(2-fluoro-4-(methyl-sulfonyl)phenylamino)-1-(1-(5-(trifluoromethyl)pyridin-2-yl)piperidin-4-yl)pyrrolidin-2-one]",15.4,2.7
"CCc1cnc(N2CCC(N3CCC[C@H](Oc4cc(F)c(S(C)(=O)=O)cc4F)C3=O)CC2)nc1 [Example 165, (S)-3-(2,5-difluoro-4-(methylsulfonyl)phenoxy)-1′-(5-ethylpyrimidin-2-yl)-[1,4′-bipiperidin]-2-one]",16.0,3.2
"COc1cnc(N2CCC(N3CC[C@H](Nc4ccc(S(C)(=O)=O)cc4F)C3=O)CC2)cn1 [Example 160, (S)-3-(2-fluoro-4-(methylsulfonyl)phenylamino)-1-(1-(5-methoxypyrazin-2-yl)piperidin-4-yl)pyrrolidin-2-one]",22.3,3.9
"O=C1C(Oc2ccc(-n3cnnn3)nc2)CCN1C1CCN(c2cnc(Cl)cn2)CC1 (stereo not drawn) [Example 67, 3-(6-(1H-tetrazol-1-yl)pyridin-3-yloxy)-1-(1-(5-chloropyrazin-2-yl)piperidin-4-yl)pyrrolidin-2-one]",15.6,2.9
"CS(=O)(=O)c1cc(F)c(N[C@H]2CCCCN(C3CCN(c4nccnc4C#N)CC3)C2=O)cc1F.Cl [Example 85, (S)-3-(4-(3-(2,5-difluoro-4-(methylsulfonyl)phenylamino)-2-oxoazepan-1-yl)piperidin-1-yl)pyrazine-2-carbonitrile hydrochloride]",6.5,1.9
"Cc1nc(S(C)(=O)=O)ccc1N[C@H]1CCN(C2CCN(c3cnc(Cl)cn3)CC2)C1=O [Example 133, (S)-1-(1-(5-chloro-pyrazin-2-yl)piperidin-4-yl)-3-(2-methyl-6-(methylsulfonyl)pyridin-3-ylamino)pyrrolidin-2-one]",27.9,2.2
"CS(=O)(=O)c1ccc(N[C@H]2CCCN(C3CCN(c4ncc(C(F)(F)F)cc4F)CC3)C2=O)c(F)c1 [Example 146, (S)-3-(2-fluoro-4-(methylsulfonyl)phenyl-amino)-1′-(3-fluoro-5-(trifluoromethyl)pyridin-2-yl)-1,4′-bipiperidin-2-one]",34.6,2.6
"CS(=O)(=O)c1cc(F)c(O[C@H]2CCN(C3CCN(c4ncc(-c5ccccn5)cn4)CC3)C2=O)cc1F [Example 94, (S)-3-(2,5-difluoro-4-(methylsulfonyl)phenoxy)-1-(1-(5-(pyridin-2-yl)pyrimidin-2-yl)piperidin-4-yl)pyrrolidin-2-one]",6.9,2.0
"CCc1cnc(N2CCC(N3CCC[C@H](Nc4cc(F)c(S(C)(=O)=O)cc4F)C3=O)CC2)cn1 [Example 59, (S)-3-(2,5-difluoro-4-(methylsulfonyl)phenylamino)-1′-(5-ethylpyrazin-2-yl)-[1,4′-bipiperidin]-2-one]",22.6,3.4
"Cc1nnc(-c2ccc(O[C@H]3CCN(C4CCN(c5cnc(Cl)cn5)CC4)C3=O)c(F)c2)o1 [Example 71, (S)-1-(1-(5-chloropyrazin-2-yl)piperidin-4-yl)-3-(2-fluoro-4-(5-methyl-1,3,4-oxadiazol-2-yl)phenoxy)pyrrolidin-2-one]",17.6,5.6
"Cc1cc(S(C)(=O)=O)ncc1N[C@H]1CCN(C2CCN(c3ncc(Cl)cc3C#N)CC2)C1=O [Example 122, (S)-5-chloro-2-(4-(3-(4-methyl-6-(methylsulfonyl)pyridin-3-ylamino)-2-oxopyrrolidin-1-yl)piperidin-1-yl) icotinonitrile]",6.5,1.5
"CS(=O)(=O)c1ccc(O[C@H]2CCN(C3CCN(c4ncc(C(F)(F)F)cc4F)CC3)C2=O)cn1 [Example 142, (S)-1-(1-(3-fluoro-5-(trifluoromethyl)pyridin-2-yl)piperidin-4-yl)-3-(6-(methylsulfonyl)pyridin-3-yloxy) pyrrolidin-2-one]",21.7,8.3
"O=C1[C@@H](Nc2ncc(C(F)(F)F)cc2Cl)CCCN1C1CCN(c2cnc(Cl)cn2)CC1 [Example 75, (S)-3-(3-chloro-5-(trifluoromethyl)pyridin-2-ylamino)-1′-(5-chloropyrazin-2-yl)-[1,4′-bipiperidin]-2-one]",9.1,2.5
"CS(=O)(=O)c1cc(F)c(N[C@H]2CCN(C3CCN(c4cnc(Cl)cn4)CC3)C2=O)cc1F [Example 3, (S)-1-(1-(5-chloropyrazin-2-yl)piperidin-4-yl)-3-(2,5-difluoro-4-(methylsulfonyl)phenylamino)pyrrolidin-2-one]",23.2,5.0
"CCc1cnc(N2CCC(N3CCCC(Nc4ccc(S(C)(=O)=O)cc4F)C3=O)CC2)nc1 (stereo not drawn) [Example 62, 1′-(5-ethylpyrimidin-2-yl)-3-(2-fluoro-4-(methylsulfonyl)phenylamino)-[1,4′-bipiperidin]-2-one]",9.8,2.9
"CCc1cnc(N2CCC(N3CCC[C@H](Nc4c(F)cc(S(C)(=O)=O)cc4F)C3=O)CC2)nc1 [Example 49, (S)-3-(2,6-difluoro-4-(methylsulfonyl)phen-ylamino)-1′-(5-ethylpyrimidin-2-yl)-[1,4′-bipiperidin]-2-one]",10.6,2.2
"CCc1ncc(N2CCC(N3CC[C@H](Nc4ccc(S(C)(=O)=O)cc4F)C3=O)CC2)cn1 [Example 159, (S)-1-(1-(2-ethylpyrimidin-5-yl)piperidin-4-yl)-3-(2-fluoro-4-(methylsulfonyl)phenylamino)pyrrolidin-2-one]",8.0,2.0
"CCc1cnc(N2CCC(N3CC[C@H](Oc4cc(C)c(C#N)cc4F)C3=O)CC2)nc1 [Example 98, (S)-4-(1-(1-(5-ethylpyrimidin-2-yl)piperidin-4-yl)-2-oxopyrrolidin-3-yloxy)-5-fluoro-2-methylbenzonitrile]",31.2,3.5
"CS(=O)(=O)c1ccc(N[C@H]2CCN(C3CCN(c4cncc(Cl)n4)CC3)C2=O)c(F)c1 [Example 18, (S)-1-(1-(6-chloropyrazin-2-yl)piperidin-4-yl)-3-(2-fluoro-4-(methylsulfonyl)phenylamino) pyrrolidin-2-one]",7.7,1.8
"CS(=O)(=O)c1ccc(N[C@H]2CCN(C3CCN(c4cnc(C(F)(F)F)cn4)CC3)C2=O)c(F)c1 [Example 13, (S)-3-(2-fluoro-4-(methylsulfonyl)phenylamino)-1-(1-(5-(trifluoromethyl)pyrazin-2-yl)piperidin-4-yl)pyrrolidin-2-one]",24.8,4.4
"CCc1cnc(N2CCC(N3CC[C@H](Nc4ccc(S(C)(=O)=O)cc4F)C3=O)CC2)nc1 [Example 19, (S)-1-(1-(5-ethylpyrimidin-2-yl)piperidin-4-yl)-3-(2-fluoro-4 (methylsulfonyl)phenylamino) pyrrolidin-2-one]",9.9,2.1
"CCc1cnc(N2CCC(N3CCC[C@H](Nc4cc(Cl)c(S(C)(=O)=O)cc4F)C3=O)CC2)nc1 [Example 48, (S)-3-(5-chloro-2-fluoro-4-(methyl-sulfonyl)phenylamino)-1′-(5-ethylpyrimidin-2-yl)-[1,4′-bipiperidin]-2-one]",16.9,3.0
"CN(CCO)C(=O)c1ccc(O[C@H]2CCN(C3CCN(c4ncc(Cl)cc4F)CC3)C2=O)c(F)c1 [Example 154, (S)-4-(1-(1-(5-chloro-3-fluoropyridin-2-yl)piperidin-4-yl)-2-oxopyrrolidin-3-yloxy)-3-fluoro-N-(2-hydroxyethyl)-N-methylbenzamide]",14.6,3.1
"Cn1cc(-c2cnc(N3CCC(N4CC[C@H](Nc5ccc(S(C)(=O)=O)cc5F)C4=O)CC3)nc2)cn1 [Example 33, (S)-3-(2-fluoro-4-(methylsulfonyl)phenylamino)-1-(1-(5-(1-methyl-1H-pyrazol-4-yl)pyrimidin-2-yl)piperidin-4-yl)pyrrolidin-2-one]",15.9,3.3
